Data published in patent US20200289523A1, “FIXED DOSED PHARMACEUTICAL COMPOSITION COMPRISING AMIODIPINE, CANDESARTAN CILEXETIL AND HYDROCHLOROTHIAZIDE FOR THE TREATMENT OF HYPERTENSION” (MIDAS PHARMA GMBH, priority 2016, published 2020).

Tests used:
[1] = In-vitro dissolution of tablets (Ph. Eur. 2.9.3/USP <711>); type: physicochemical; settings: on changes of the composition of the formulation
Procedure: The in-vitro dissolution of tablets was analyzed according to Ph.

[2] = Solubility in various standard dissolution media (FIG. 1); type: physicochemical; settings: at low pH-values

| solubility [2] | Structure (SMILES) | dissolution profile of Hydrochlorothiazide [1] |
| --- | --- | --- |
|  | NS(=O)(=O)c1cc2c(cc1Cl)NCNS2(=O)=O [Hydrochlorothiazide, 6-chloro-1,1-dioxo-3,4-dihydro-2H-1,2,4-benzothiadiazine-7-sulfonamide] | not influenced by changes of the composition |
| barely soluble | CCOc1nc2cccc(C(=O)OC(C)OC(=O)OC3CCCCC3)c2n1Cc1ccc(-c2ccccc2-c2nnn[nH]2)cc1 (centres unmarked) [Candesartan cilexetil] |  |
